# Reference: US12250946B2, “Antifungal composition having excellent antifungal activity even at low temperature” (Korea University Research and Business Foundation, priority 2020, dated 2025)
# System: Candida albicans biofilms
# Test: Biofilm inhibitory activity by confocal laser scanning microscopy (SYTO 9 / PI staining)
# Assay type: cell-based
# Details: 5 minutes treatment, 1.2 mM each component
# Experimental: Candida albicans biofilms were formed on a stainless-steel coupon. Specifically, the […] were immersed in 90% (v/v) ethanol for 30 minutes for decontamination of stainless-steel coupons (1.5×1.0 cm2) and washed with sterile distilled water. Then, stainless-steel coupons were placed in a 12-well tissue culture plate containing 4.95 mL of SDB enrichment medium, and 50 uL of the mixed suspensions of albicans were dispensed and cultured at 30° C. for 48 hours to form Candida albicans biofilms. After forming the biofilm on each coupon, weakly attached cells, not the biofilm, were separated using 0.85% sterile physiological saline.
# The antifungal activity of the antimicrobial mixture of the present disclosure was confirmed through confocal laser scanning microscopy analysis. For the biofilms of Candida species treated with each antimicrobial mixture, intact cells were stained with green fluorescent SYTO®9 (S-34854, Molecular Probes™, Thermo Fisher Scientific Inc., Pittsburgh, PA, USA; final concentration: 6.7 μM; excitation: 488 nm, emission: 498/501 nm), and damaged cells were detected by staining with red fluorescent propidium iodide (PI; P3566, Molecular Probes™; final concentration: 15 μM; excitation: 555 nm, emission: 617 nm). […]
smiles,measurement,setting,value
"CC(O)CO (centres unmarked) [compound 2, propylene glycol]",damage to the fungal cell membrane in the biofilms (SYTO 9 green / PI red fluorescence),"5° C., FIGS. 4A-4F",did not show significant damage to the fungal cell membrane
same,damage to the fungal cell membrane in the biofilms (SYTO 9 green / PI red fluorescence),"22° C., FIGS. 5A-5F",did not show significant damage to the fungal cell membrane
